Consider one compound from patent US20220175777A1, “Inhibitors of Multidrug Resistance Transporter P-Glycoprotein” (Southern Methodist University, priority 2014, published 2022).

The subject of one assay is DU145-TxR. The assay can be described thus: Re-sensitization to Paclitaxel or Doxorubicin at 25 μM compound (MTT). Particulars: 48 hours. It is filed as cell-based, human. How it is done:
FIGS. 3A-3B are plots that show an example of the re-sensitization of a multidrug resistant prostate cancer cell line to two different chemotherapeutics using the prostate cancer derived cell line, DU145 and the multidrug-resistant variant, DU145-TxR. […] Cell viability was measured by the MTT (3-(4,5-dimethylthiazol-2-yl)-2,5-diphenyl tetrazolium bromide assay conducted as described previously. After 48 hours of treatment with Paclitaxel or Doxorubicin alone or in the presence of 25 μM compound 29, 34, or 45 media was removed and cells were washed twice with phosphate buffered saline (PBS) and MTT assay was conducted 24 hours later. Data expressed as mean±SEM.

A further assay deals with HFL1. The assay can be described thus: Intrinsic toxicity, MTT survival. In kind it is cell-based. Particulars: Homo sapiens, 48 hours, ± standard error. How it is done:
(§1) Percent survival determined by MTT assay calculated relative to cells treated with equal volume DMSO vehicle and represent the mean±SEM from 2-4 separate studies, each study performed in triplicate wells.
The intrinsic in vitro toxicities of identified compounds were evaluated to determine their potential therapeutic window. This was assessed in a noncancerous cell line (HFL1) and the human prostate cancer cell lines DU145 and the MDR sub-line DU145TxR. The potential toxicity of the compounds were assessed at concentrations that centered around 25 μM.

The subject of the next assay is DU145. The assay can be described thus: Intrinsic toxicity, MTT survival. In kind it is cell-based. Conditions: Homo sapiens, DU-145, 48 hours, ± standard error. The protocol:
as §1
(§2) The intrinsic in vitro toxicities of identified compounds were evaluated to determine their potential therapeutic window. This was assessed in a noncancerous cell line (HFL1) and the human prostate cancer cell lines DU145 and the MDR sub-line DU145TxR.

Assay [1] has as its system DU145TXR. The assay can be described thus: Potentiation of 500 nM paclitaxel cytotoxicity (MTT). It is filed as cell-based, human. How it is done:
FIGS. 4A and 4B show the in silico identified P-gp inhibitors potentiate the cytotoxic effects of paclitaxel in the MDR human prostate cancer cell line DU145TxR. […] Values represent the mean±SEM of at least two separate experiments performed in triplicate.
A range of experimental inhibitor concentrations was added in the presence of 500 nM paclitaxel and the cell viability was assessed using the MTT assay.
In order to compare the efficacy of inhibitors, the potentiation concentration of inhibitor resulting in 50% reduction in cell viability, PC50, in the presence of 500 nM paclitaxel was calculated from the data in FIG. 4A.

For assay [2], the target named is T1, Cysteineless Mouse MDR3 P-glycoprotein (Mus musculus, UniProt P21447, C1070A/C1121A/C1223A/C133A/C427A/C638A/C669A/C713A/C952A).
T1 construct: made in house; host or cells: Pichia pastoris
T1 sequence (P21447 whole entry C133A/C427A/C638A/C669A/C713A/C952A/C1070A/C1121A/C1223A): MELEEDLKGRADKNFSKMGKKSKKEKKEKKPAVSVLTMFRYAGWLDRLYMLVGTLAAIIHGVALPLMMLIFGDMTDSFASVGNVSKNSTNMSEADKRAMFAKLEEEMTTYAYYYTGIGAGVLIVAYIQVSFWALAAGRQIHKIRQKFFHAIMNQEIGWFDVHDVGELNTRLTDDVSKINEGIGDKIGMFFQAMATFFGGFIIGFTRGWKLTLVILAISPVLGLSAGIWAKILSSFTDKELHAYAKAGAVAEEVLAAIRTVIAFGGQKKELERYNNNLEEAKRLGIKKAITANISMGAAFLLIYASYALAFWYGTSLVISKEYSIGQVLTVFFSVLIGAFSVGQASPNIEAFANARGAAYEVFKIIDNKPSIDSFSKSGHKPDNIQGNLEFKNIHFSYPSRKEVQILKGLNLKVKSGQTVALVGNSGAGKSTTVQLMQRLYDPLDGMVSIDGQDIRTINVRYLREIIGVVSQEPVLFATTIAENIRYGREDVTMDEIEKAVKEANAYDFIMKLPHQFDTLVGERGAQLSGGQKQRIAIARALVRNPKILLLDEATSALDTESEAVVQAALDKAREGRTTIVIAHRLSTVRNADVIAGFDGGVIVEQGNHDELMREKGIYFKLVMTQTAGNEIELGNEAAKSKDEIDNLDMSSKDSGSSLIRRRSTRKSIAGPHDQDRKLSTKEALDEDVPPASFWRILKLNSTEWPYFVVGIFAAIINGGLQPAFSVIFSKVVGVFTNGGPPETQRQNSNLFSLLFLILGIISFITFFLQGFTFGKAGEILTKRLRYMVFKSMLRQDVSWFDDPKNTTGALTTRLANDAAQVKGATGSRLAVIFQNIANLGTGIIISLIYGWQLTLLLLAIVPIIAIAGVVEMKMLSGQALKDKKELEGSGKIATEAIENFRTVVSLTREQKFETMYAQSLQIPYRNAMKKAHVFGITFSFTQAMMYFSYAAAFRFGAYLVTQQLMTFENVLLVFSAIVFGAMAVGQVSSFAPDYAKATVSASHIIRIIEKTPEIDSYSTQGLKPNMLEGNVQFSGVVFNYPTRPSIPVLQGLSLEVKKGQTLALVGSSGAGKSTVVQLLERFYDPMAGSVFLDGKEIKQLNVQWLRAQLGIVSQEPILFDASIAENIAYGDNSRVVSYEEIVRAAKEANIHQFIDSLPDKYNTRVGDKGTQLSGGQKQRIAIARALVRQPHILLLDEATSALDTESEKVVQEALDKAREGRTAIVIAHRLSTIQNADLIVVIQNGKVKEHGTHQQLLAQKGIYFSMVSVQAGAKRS
The assay can be described thus: SL-ATP binding to P-gp by ESR spectroscopy. Particulars: 50 microM inhibitor compound. The method in brief:
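Cysteine-free mouse P-gp (30–50 microM) incubated with 50 microM inhibitor, then titrated with spin-labelled ATP analogue SL-ATP. Bound SL-ATP calculated from high-field ESR signal of free SL-ATP versus no-protein control, giving binding stoichiometry and affinity; at least 3 studies on 3–5 P-gp preparations.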

Assay [3] addresses T1, Cysteineless Mouse MDR3 P-glycoprotein. The assay can be described thus: ATP hydrolysis by purified P-glycoprotein, basal and verapamil-stimulated. In kind it is biochemical. Conditions: in the presence of verapamil. In a few lines: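 Cysteine-less mouse MDR3 P-gp (all Cys→Ala), expressed in Pichia pastoris and stabilised with phosphatidyl choline, was pre-incubated with compounds at 37 °C. ATP hydrolysis (2 mM ATP final, 20 min) measured via pyruvate kinase/lactate dehydrogenase-coupled NADH oxidation, with and without verapamil stimulation.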

Assay [4] has the same target. Particulars: ESR data of Brewer et al. (2014); cited from earlier work.
The next assay concerns A2780. Nature of the assay: Hyper-sensitization of ovarian cancer cells to doxorubicin. It is filed as cell-based. Conditions: not chemotherapy resistant A2780. From the text:
Hyper-sensitization of cancers to chemotherapeutics. […] The sensitivity of normal, not chemotherapy resistant A2780 ovarian cancer cell lines to doxorubicin was increased by several orders of magnitude in these assays.

Assay [5] deals with DU145TXR. The assay can be described thus: Intrinsic toxicity, MTT survival. It is filed as cell-based, human. Conditions: Homo sapiens; intrinsic toxicity, 48 hours, MTT; ± standard error. The protocol:
as §1, §2

In assay [6] the test system is DU145TXR. Nature of the assay: Dose dependent sensitization of MDR cell line to paclitaxel (MTT). Particulars: 25 μM compound. In kind it is cell-based, human. How it is done:
FIGS. 6A to 6C show the dose dependent sensitization of MDR prostate cancer cell line DU145TxR. […] For reference, the DU145TxR (closed circle) and DU145 (open circle) incubated with paclitaxel only are also included. Values are mean±SEM from at least 2 separate experiments performed in triplicate wells. The data were normalized to the intrinsic toxicities as determined in studies from FIGS. 5A to 5C of each of the compounds for each of the corresponding concentrations.
Dose Dependent Sensitization of MDR Prostate Cancer Cell Line: To determine the degree to which the MDR prostate cancer cell line DU145TxR could be sensitized to paclitaxel the inventors determined cell survival at increasing concentrations of paclitaxel in the presence of three concentrations of P-gp inhibitors. FIGS. 6A, 6B and 6C show the survival of DU145TxR at increasing concentration of paclitaxel in the presence of 5 μM, 10 μM and 25 μM of the experimental compounds, respectively. The open circles represent the parental DU145 cell line in the presence of paclitaxel without addition of any inhibitor compound. The closed circles represent the survival of the multidrug resistant DU145TxR in the presence of paclitaxel alone. […] At that concentration over 10-fold increase in paclitaxel sensitivity in DU145TxR is observed compared to DU145TxR without P-gp inhibitors. Doubling the concentration of the compounds to 10 μM approximately doubled the DU145TxR sensitivity to paclitaxel.

For orientation: IC50 means the concentration that gives 50% inhibition. Low values mean greater potency in that assay, high ones weaker potency in that assay. With `CCC(C(=O)N1CCN(c2ccc(OC)cc2)CC1)n1nc(C)c2sc3ccccc3c2c1=O` (centres unmarked) [SMU-34, 2-[1-[4-(4-methoxyphenyl)piperazin-1-yl]-1-oxobutan-2-yl]-4-methyl-[1]benzothiolo[2,3-d]pyridazin-1-one], the “Chemotherapeutic sensitivity of MDR cell line (Paclitaxel or Doxorubicin)” value in the assay with DU145-TxR was “restores chemotherapeutic sensitivity”. Besides, the concentration for half-maximal inhibition (IC50) with HFL1 was determined as 85.2 ± 0.04 µM; with DU145 it was 47.2 ± 0.02 µM; in the assay on DU145TXR [5] it was 200.3 ± 0.17 µM. The “Effect on paclitaxel sensitivity” value with DU145TXR [1] (50 nM-25 μM inhibitor with 500 nM paclitaxel) was “strongly affected the sensitivity”. In addition, the EC50 in the assay with DU145TXR [1] (in the presence of 500 nM paclitaxel, 48 hours, read-out: PC50, potentiation concentration of inhibitor resulting in 50% reduction in cell viability) was 0.57 ± 0.003 µM. In [2], the “Effect on SL-ATP binding” value is recorded as “decreased the SL-ATP binding affinities”. The “Effect on stimulated ATPase” value in assay [3] is reported as “significantly inhibit”. Further, in [4], the “Effect on SL-ANP binding” value is “reduce the number of binding sites”. The Sensitivity to doxorubicin entry in the assay with A2780 is listed as “hyper-sensitized”. Besides, in the assay on DU145TXR [6], the Sensitization to paclitaxel was 1200 fold.
